Experimental data from ChEMBL document CHEMBL1153175, “Pyrazole derived from (+)-3-carene; a novel potent, selective scaffold for sphingosine-1-phosphate (S1P(1)) receptor agonists” (Bioorg Med Chem Lett, 2010).
pEC50: −log10 of the molar value. Active and inactive are the calls of the source. The calls are words filed in the database; no cut-off is given here.

Key:
[1] = target: T1, Sphingosine 1-phosphate receptor 4 (Homo sapiens, UniProt O95977); test: Agonist activity at human SIP4 receptor by [35S]GTPgammaS binding assay; format: functional
T1 sequence (O95977 whole entry): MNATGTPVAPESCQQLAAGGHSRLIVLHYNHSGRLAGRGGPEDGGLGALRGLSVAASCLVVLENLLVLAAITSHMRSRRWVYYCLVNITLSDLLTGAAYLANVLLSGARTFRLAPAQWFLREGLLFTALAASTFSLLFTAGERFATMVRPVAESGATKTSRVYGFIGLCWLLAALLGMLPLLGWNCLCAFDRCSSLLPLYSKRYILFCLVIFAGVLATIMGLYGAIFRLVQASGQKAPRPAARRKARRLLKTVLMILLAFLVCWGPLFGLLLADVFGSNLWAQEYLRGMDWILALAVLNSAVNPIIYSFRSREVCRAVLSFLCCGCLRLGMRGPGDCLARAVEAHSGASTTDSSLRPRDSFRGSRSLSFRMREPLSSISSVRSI

[2] = target: T2, Sphingosine 1-phosphate receptor 1 (Homo sapiens, UniProt P21453); test: Agonist activity at human SIP1 receptor expressed in CHO cells by [35S]GTPgammaS binding assay; format: functional, cell-based
T2 sequence (P21453 whole entry): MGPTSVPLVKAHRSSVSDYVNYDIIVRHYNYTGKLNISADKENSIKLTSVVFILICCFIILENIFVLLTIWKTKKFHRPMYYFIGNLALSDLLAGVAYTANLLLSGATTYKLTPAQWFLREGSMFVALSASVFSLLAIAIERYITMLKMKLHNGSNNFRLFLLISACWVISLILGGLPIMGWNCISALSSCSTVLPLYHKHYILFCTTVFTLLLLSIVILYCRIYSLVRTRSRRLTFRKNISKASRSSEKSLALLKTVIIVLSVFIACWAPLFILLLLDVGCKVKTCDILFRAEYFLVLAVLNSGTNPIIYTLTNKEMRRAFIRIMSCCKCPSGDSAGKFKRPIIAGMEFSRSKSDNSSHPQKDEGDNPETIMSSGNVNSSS

[3] = target: T3, Sphingosine 1-phosphate receptor 5 (Homo sapiens, UniProt Q9H228); test: Agonist activity at human SIP5 receptor at 10 uM by [35S]GTPgammaS binding assay relative to S1P; format: functional
T3 sequence (Q9H228 whole entry): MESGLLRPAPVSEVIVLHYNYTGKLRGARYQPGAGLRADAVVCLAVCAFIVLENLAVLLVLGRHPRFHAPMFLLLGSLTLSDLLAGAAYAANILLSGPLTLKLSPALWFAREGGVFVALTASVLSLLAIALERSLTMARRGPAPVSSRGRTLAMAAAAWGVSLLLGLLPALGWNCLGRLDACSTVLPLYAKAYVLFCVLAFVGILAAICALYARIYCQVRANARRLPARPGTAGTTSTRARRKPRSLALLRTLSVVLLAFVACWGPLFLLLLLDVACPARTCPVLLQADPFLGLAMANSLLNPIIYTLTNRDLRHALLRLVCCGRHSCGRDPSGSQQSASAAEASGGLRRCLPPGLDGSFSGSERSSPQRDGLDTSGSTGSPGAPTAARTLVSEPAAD

[4] = target: T4, Sphingosine 1-phosphate receptor 3 (Homo sapiens, UniProt Q99500); test: Agonist activity at human SIP3 receptor at 10 uM by [35S]GTPgammaS binding assay relative to S1P; format: functional
T4 sequence (Q99500 whole entry): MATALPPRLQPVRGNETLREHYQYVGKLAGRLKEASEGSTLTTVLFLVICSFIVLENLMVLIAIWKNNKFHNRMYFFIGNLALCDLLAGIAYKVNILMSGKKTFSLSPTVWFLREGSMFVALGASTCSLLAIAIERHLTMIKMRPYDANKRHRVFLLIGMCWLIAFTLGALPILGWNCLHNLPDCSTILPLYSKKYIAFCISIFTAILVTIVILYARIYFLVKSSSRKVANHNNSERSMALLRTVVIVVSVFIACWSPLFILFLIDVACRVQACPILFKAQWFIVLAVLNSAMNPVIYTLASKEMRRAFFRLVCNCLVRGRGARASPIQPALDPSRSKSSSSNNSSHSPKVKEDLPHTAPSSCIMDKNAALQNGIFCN

[5] = target: T2, Sphingosine 1-phosphate receptor 1; conditions: CHO, at 10 µM
Description: Agonist activity at human SIP1 receptor expressed in CHO cells at 10 uM by [35S]GTPgammaS binding assay relative to S1P

[6] = target: T5, Sphingosine 1-phosphate receptor 4 (Homo sapiens) (UniProt O95977); test: Agonist activity at human SIP4 receptor at 10 uM by [35S]GTPgammaS binding assay relative to S1P; format: functional
T5 sequence (whole entry): T1 sequence (O95977 whole entry)

[7] = target: T3, Sphingosine 1-phosphate receptor 5; test: Agonist activity at human SIP5 receptor by [35S]GTPgammaS binding assay; format: functional
[8] = target: T4, Sphingosine 1-phosphate receptor 3; test: Agonist activity at human SIP3 receptor by [35S]GTPgammaS binding assay; format: functional
Rattus norvegicus [9] = test: Reduction of lymphocytes count in Lewis rat blood at 0.3 mg/kg. iv; format: functional, organism-based; parameters: dose 0.3 mg/kg
Homo sapiens [10] = species: Homo sapiens; test: Selectivity ratio, EC50 for human S1P1 receptor over EC50 for human S1P5 receptor
Homo sapiens [11] = species: Homo sapiens; test: Selectivity ratio, EC50 for human S1P1 receptor over EC50 for human S1P4 receptor
Rattus norvegicus [12] = test: Reduction of lymphocytes count in Lewis rat blood at 3 mg/kg. po; format: functional, organism-based; parameters: dose 3 mg/kg
[13] = Chemical stability at pH >7 assessed as half life; format: physicochemical

Q: With Cc1nn(C(=O)/C=C/C2CCCCC2)c2c1[C@H]1[C@@H](C2)C1(C)C as the compound, how does the pEC50 [1] read?
A: Its pEC50 is < 5.00.

Q: And the pEC50 [2]?
A: The pEC50 was < 5.00.

Q: And the Emax [3]?
A: Its Emax is 29%.

Q: And the Emax [4]?
A: Its Emax is 3%.

Q: What about the Emax [5] of the same compound?
A: Its Emax is 18%.

Q: What about the Emax [6] of the same compound?
A: The Emax was 15%.

Q: What about the pEC50 [7] of the same compound?
A: Its pEC50 is < 5.00.

Q: What about the pEC50 [8] of the same compound?
A: The pEC50 was < 5.00.

Q: With Cc1nn(S(=O)(=O)/C=C/c2ccccc2)c2c1[C@H]1[C@@H](C2)C1(C)C as the compound, how does the pEC50 [1] read?
A: Its pEC50 is < 5.00.

Q: What about the pEC50 [2] of the same compound?
A: Its pEC50 is < 5.00.

Q: And the Emax [3]?
A: The Emax was -1%.

Q: And the Emax [4]?
A: The Emax was -2%.

Q: What about the Emax [5] of the same compound?
A: Its Emax is 7%.

Q: What about the Emax [6] of the same compound?
A: Its Emax is -19%.

Q: What about the pEC50 [7] of the same compound?
A: Its pEC50 is < 5.00.

Q: What about the pEC50 [8] of the same compound?
A: Its pEC50 is < 5.00.

Q: With CCCCCCC(=O)n1nc(C)c2c1C[C@@H]1[C@H]2C1(C)C as the compound, how does the pEC50 [1] read?
A: Its pEC50 is < 5.00.

Q: What about the pEC50 [2] of the same compound?
A: Its pEC50 is < 5.00.

Q: And the Emax [3]?
A: Its Emax is 2%.

Q: What about the Emax [4] of the same compound?
A: Its Emax is 44%.

Q: What about the Emax [5] of the same compound?
A: The Emax was 25%.

Q: And the Emax [6]?
A: Its Emax is -6%.

Q: And the pEC50 [7]?
A: The pEC50 was < 5.00.

Q: What about the pEC50 [8] of the same compound?
A: Its pEC50 is < 5.00.

Q: Which results are given for Cc1nn(C(=O)/C=C/c2ccccc2)c2c1[C@H]1[C@@H](C2)C1(C)C?
A: pEC50 [1]: < 5.00; Emax [3]: 90%; Emax [4]: 94%; Emax [6]: -2%; pEC50 [7]: 5.75; pEC50 [8]: < 6.00

Q: With Cc1nn(C/C=C/c2ccccc2)c2c1[C@H]1[C@@H](C2)C1(C)C as the compound, how does the pEC50 [1] read?
A: Its pEC50 is < 5.00.

Q: And the pEC50 [2]?
A: Its pEC50 is < 5.00.

Q: And the Emax [3]?
A: The Emax was 10%.

Q: And the Emax [4]?
A: Its Emax is 14%.

Q: What about the Emax [5] of the same compound?
A: The Emax was 45%.

Q: And the Emax [6]?
A: The Emax was 10%.

Q: And the pEC50 [7]?
A: Its pEC50 is < 5.00.

Q: And the pEC50 [8]?
A: Its pEC50 is < 5.00.

Q: With Cc1nn(C(=O)/C=C/c2ccccc2Cl)c2c1[C@H]1[C@@H](C2)C1(C)C as the compound, how does the pEC50 [1] read?
A: Its pEC50 is < 5.00.

Q: And the pEC50 [2]?
A: Its pEC50 is 7.80.

Q: And the Emax [3]?
A: Its Emax is -19%.

Q: What about the Emax [4] of the same compound?
A: Its Emax is 69%.

Q: What about the Emax [5] of the same compound?
A: Its Emax is 89%.

Q: And the Emax [6]?
A: The Emax was -19%.

Q: And the pEC50 [7]?
A: The pEC50 was < 5.00.

Q: And the pEC50 [8]?
A: The pEC50 was < 6.00.

Q: With Cc1nn(C(=O)/C=C/c2cccc(S(N)(=O)=O)c2)c2c1[C@H]1[C@@H](C2)C1(C)C as the compound, how does the pEC50 [1] read?
A: The pEC50 was 6.94.

Q: What about the pEC50 [2] of the same compound?
A: The pEC50 was 7.96.

Q: And the Emax [3]?
A: Its Emax is 76%.

Q: And the Emax [4]?
A: The Emax was 84%.

Q: And the Emax [5]?
A: The Emax was 92%.

Q: And the Emax [6]?
A: The Emax was 21%.

Q: And the pEC50 [7]?
A: The pEC50 was 7.09.

Q: And the pEC50 [8]?
A: The pEC50 was 5.87.

Q: With Cc1nn(C(=O)/C=C/c2ccc(-c3ccccc3)cc2)c2c1[C@H]1[C@@H](C2)C1(C)C as the compound, how does the pEC50 [1] read?
A: Its pEC50 is < 5.00.

Q: And the pEC50 [2]?
A: Its pEC50 is 6.55.

Q: And the Emax [3]?
A: The Emax was 22%.

Q: What about the Emax [4] of the same compound?
A: Its Emax is 8%.

Q: What about the Emax [5] of the same compound?
A: The Emax was 76%.

Q: What about the Emax [6] of the same compound?
A: The Emax was 1%.

Q: And the pEC50 [7]?
A: The pEC50 was < 5.00.

Q: And the pEC50 [8]?
A: The pEC50 was < 5.00.

Q: With Cc1nn(C(=O)CCc2ccccc2)c2c1[C@H]1[C@@H](C2)C1(C)C as the compound, how does the pEC50 [1] read?
A: The pEC50 was < 5.00.

Q: And the pEC50 [2]?
A: Its pEC50 is 7.07.

Q: What about the Emax [3] of the same compound?
A: Its Emax is 26%.

Q: And the Emax [4]?
A: Its Emax is 38%.

Q: And the Emax [5]?
A: Its Emax is 55%.

Q: What about the Emax [6] of the same compound?
A: Its Emax is 0%.

Q: And the pEC50 [7]?
A: Its pEC50 is < 5.00.

Q: What about the pEC50 [8] of the same compound?
A: Its pEC50 is < 5.00.

Q: Which results are given for COc1ccc(/C=C/C(=O)n2nc(C)c3c2C[C@@H]2[C@H]3C2(C)C)cc1OC?
A: pEC50 [1]: < 5.00; pEC50 [2]: 7.60; Emax [3]: 80%; Emax [4]: 46%; Emax [5]: 89%; Emax [6]: 30%; pEC50 [7]: 6.05; pEC50 [8]: < 5.00

Q: With Cc1nn(C(=O)/C=C/c2cccc3[nH]ccc23)c2c1[C@H]1[C@@H](C2)C1(C)C as the compound, how does the pEC50 [1] read?
A: The pEC50 was 6.25.

Q: What about the pEC50 [2] of the same compound?
A: Its pEC50 is 8.70.

Q: And the Activity (Rattus norvegicus [9])?
A: The Activity was “inactive”.

Q: What about the Emax [3] of the same compound?
A: Its Emax is 130%.

Q: What about the Emax [4] of the same compound?
A: Its Emax is 84%.

Q: And the Emax [5]?
A: The Emax was 90%.

Q: And the Ratio EC50 (Homo sapiens [10])?
A: The Ratio EC50 was 250.

Q: And the Emax [6]?
A: Its Emax is 28%.

Q: And the pEC50 [7]?
A: The pEC50 was 6.30.

Q: What about the Ratio EC50 (Homo sapiens [11]) of the same compound?
A: The Ratio EC50 was 250.

Q: What about the pEC50 [8] of the same compound?
A: Its pEC50 is 6.00.

Q: What about the Activity (Rattus norvegicus [12]) of the same compound?
A: Its Activity is “inactive”.

Q: Which half-life [13] does the source give for Cc1nn(C(=O)/C=C/c2ccncc2)c2c1[C@H]1[C@@H](C2)C1(C)C here?
A: The half-life was 3 h.

Q: And the pEC50 [1]?
A: Its pEC50 is 7.00.

Q: And the pEC50 [2]?
A: The pEC50 was 8.15.

Q: What about the Activity (Rattus norvegicus [9]) of the same compound?
A: Its Activity is “inactive”.

Q: And the Emax [3]?
A: The Emax was 93%.

Q: And the Emax [4]?
A: Its Emax is 83%.

Q: What about the Emax [5] of the same compound?
A: The Emax was 92%.

Q: And the Emax [6]?
A: Its Emax is 32%.

Q: What about the pEC50 [7] of the same compound?
A: Its pEC50 is 6.89.

Q: What about the pEC50 [8] of the same compound?
A: Its pEC50 is 6.46.

Q: What about the Activity (Rattus norvegicus [12]) of the same compound?
A: Its Activity is “inactive”.

Q: With Cc1nn(C(=O)/C=C/c2ccc(S(N)(=O)=O)cc2)c2c1[C@H]1[C@@H](C2)C1(C)C as the compound, how does the pEC50 [1] read?
A: Its pEC50 is < 5.00.

Q: And the pEC50 [2]?
A: Its pEC50 is 6.92.

Q: What about the Emax [3] of the same compound?
A: Its Emax is 16%.

Q: What about the Emax [4] of the same compound?
A: Its Emax is 68%.

Q: What about the Emax [5] of the same compound?
A: The Emax was 68%.

Q: What about the Emax [6] of the same compound?
A: Its Emax is -22%.

Q: What about the pEC50 [7] of the same compound?
A: Its pEC50 is < 5.00.

Q: What about the pEC50 [8] of the same compound?
A: Its pEC50 is < 6.00.

Q: What does the source list for Cc1nn(C(=O)/C=C/c2cccc(C(F)(F)F)c2)c2c1[C@H]1[C@@H](C2)C1(C)C?
A: pEC50 [1]: < 5.00; pEC50 [2]: 7.59; Emax [3]: 56%; Emax [4]: 46%; Emax [5]: 65%; Emax [6]: 17%; pEC50 [7]: 6.49; pEC50 [8]: < 5.00

Q: With Cc1nn(C(=O)/C=C/c2cccnc2)c2c1[C@H]1[C@@H](C2)C1(C)C as the compound, how does the pEC50 [1] read?
A: Its pEC50 is 7.00.

Q: And the pEC50 [2]?
A: The pEC50 was 7.77.

Q: What about the Emax [3] of the same compound?
A: Its Emax is 87%.

Q: And the Emax [4]?
A: Its Emax is 61%.

Q: And the Emax [5]?
A: Its Emax is 90%.

Q: And the Emax [6]?
A: Its Emax is 30%.

Q: What about the pEC50 [7] of the same compound?
A: The pEC50 was 6.46.

Q: What about the pEC50 [8] of the same compound?
A: The pEC50 was < 6.00.
